In article PMC2873993, “Comparative Therapeutic Effects of Velaglucerase Alfa and Imiglucerase in a Gaucher Disease Mouse Model” (PLoS ONE, 2010):
Where a chain is given by its changes, count along the chain named. One block for each molecule: values may come before it.

Legend:
Vela = molecular target: T1, Vela (Homo sapiens, UniProt P04062); experiment: Inhibition of Vela by active site-directed GCase inhibitors (4MU-Glc substrate); assay type: biochemical; conditions: 8 pmol enzyme protein; SE ≤20%
T1 construct: purchased HGT/Shire, Cambridge, MA Lot#FEC06-002
T1 sequence (P04062 40-536): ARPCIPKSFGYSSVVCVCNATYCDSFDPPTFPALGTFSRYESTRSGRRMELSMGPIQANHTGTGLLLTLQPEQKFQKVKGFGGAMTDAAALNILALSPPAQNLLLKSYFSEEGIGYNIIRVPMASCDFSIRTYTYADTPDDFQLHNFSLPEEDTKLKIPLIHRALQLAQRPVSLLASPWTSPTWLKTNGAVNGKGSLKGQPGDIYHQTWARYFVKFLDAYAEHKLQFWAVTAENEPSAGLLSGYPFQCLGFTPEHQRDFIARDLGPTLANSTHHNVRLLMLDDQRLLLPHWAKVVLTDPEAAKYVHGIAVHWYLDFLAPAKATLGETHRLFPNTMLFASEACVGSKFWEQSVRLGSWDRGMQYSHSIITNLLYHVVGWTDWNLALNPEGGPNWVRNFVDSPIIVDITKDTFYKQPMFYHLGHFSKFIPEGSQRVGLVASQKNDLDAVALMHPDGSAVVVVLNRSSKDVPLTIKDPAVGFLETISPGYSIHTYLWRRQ

Imig = molecular target: T2, Imig (Homo sapiens, UniProt P04062, R534H); experiment: Inhibition of Imig by active site-directed GCase inhibitors (4MU-Glc substrate); assay type: biochemical; conditions: 8 pmol enzyme protein; SE ≤20%
T2 construct: purchased Genzyme, Cambridge, MA Lot#A7021H04; host or cells: CHO cells
T2 sequence (P04062 40-536 R534H): T1 sequence (P04062 40-536) with R495H

9 V/null mouse = tested on: 9 V/null mouse; design: method as in PMID 17509920; conditions: cited from earlier work
patients = conditions: Gaucher disease patients; cited from earlier work

IC50 (Vela): 99.8 µM | IC50 (Imig): 146 µM
Molecule: O[C@H]1[C@H](O)[C@@H](O)[C@@H]2O[C@@H]2[C@@H]1O (racemic) [Conduritol B epoxide]

Molecule: CCCCCCCC(=O)N[C@H](CN1CCCC1)[C@H](O)c1ccc2c(c1)OCCO2 [Genz 112638]
effect on alveolar Gaucher cells (9 V/null mouse): clearance of the alveolar Gaucher cells

B1: alglucerase (protein, UniProt P04062 40-536, looked up)
Lysosomal acid …: T1 sequence (P04062 40-536)
modifications: mannosyl-terminated glycans
patients who developed an IgG antibody response (patients): 13–15%
